Legend:
Assay in all cases: relative viability (nuclei count vs DMSO), 5 days (fraction); higher = more cells survive
[1] = compound: C1CNCCC1C2=CC(=NN2)C3=CC=NC=C3 + O=C(CCCCCCC(=O)Nc1ccccc1)NO [Vorinostat] (partner 1 µM)
Procedure, shortened: (§1)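 Lung cancer cell lines in 1536-well plates got either a single drug or a fixed anchor-drug dose together with five library-drug doses (not always all listed) in √10 steps, by pin tool, on the day after seeding. Nuclei were counted after 5 days, and relative viability is the treated-to-vehicle ratio of nuclei counts. Values are medians of duplicate plates.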

[2] = compound: C[C@@H](N)c1ccc(C(=O)Nc2ccnc3[nH]ccc23)cc1 + O=C(CCCCCCC(=O)Nc1ccccc1)NO [Vorinostat] (partner 1 µM)
Procedure, shortened: as §1

[3] = compound: C1CNCCC1C2=CC(=NN2)C3=CC=NC=C3 + CC1(C)CCC(c2ccc(Cl)cc2)=C(CN2CCN(c3ccc(C(=O)NS(=O)(=O)c4ccc(N[C@H](CCN5CCOCC5)CSc5ccccc5)c(S(=O)(=O)C(F)(F)F)c4)cc3)CC2)C1 [Navitoclax] (partner 0.5 µM)
Procedure, shortened: as §1

NCI-H2405
relative viability ([1]; first compound 0.08 µM): 1.04
relative viability ([1]; first compound 0.8 µM): 0.993
relative viability ([1]; first compound 2.53 µM): 1.06
relative viability ([1]; first compound 8 µM): 0.901
relative viability ([2]; first compound 0.1265 µM): 1.09
relative viability ([2]; first compound 0.4 µM): 1.02
relative viability ([2]; first compound 1.265 µM): 0.699
relative viability ([2]; first compound 4 µM): 0.404
relative viability ([3]; first compound 0.08 µM): 1.03
relative viability ([3]; first compound 0.8 µM): 0.823
relative viability ([3]; first compound 2.53 µM): 1.5
relative viability ([3]; first compound 8 µM): 0.849

NCI-H3122
relative viability ([1]; first compound 0.08 µM): 0.717
relative viability ([1]; first compound 0.8 µM): 0.994
relative viability ([1]; first compound 2.53 µM): 1.05
relative viability ([1]; first compound 8 µM): 1.12
relative viability ([2]; first compound 0.04 µM): 1.04
relative viability ([2]; first compound 0.1265 µM): 1.04
relative viability ([2]; first compound 0.4 µM): 1.02
relative viability ([2]; first compound 1.265 µM): 1.03
relative viability ([2]; first compound 4 µM): 1.29
relative viability ([3]; first compound 0.08 µM): 0.98
relative viability ([3]; first compound 0.8 µM): 1.05
relative viability ([3]; first compound 2.53 µM): 0.979
relative viability ([3]; first compound 8 µM): 1.03

PC-3 [JPC-3]
relative viability ([1]; first compound 0.08 µM): 0.94
relative viability ([1]; first compound 0.8 µM): 0.797
relative viability ([1]; first compound 2.53 µM): 0.881
relative viability ([1]; first compound 8 µM): 0.834
relative viability ([2]; first compound 0.04 µM): 0.803
relative viability ([2]; first compound 0.1265 µM): 0.77
relative viability ([2]; first compound 0.4 µM): 0.85
relative viability ([2]; first compound 1.265 µM): 0.836
relative viability ([2]; first compound 4 µM): 0.725
relative viability ([3]; first compound 0.08 µM): 0.835
relative viability ([3]; first compound 0.8 µM): 0.905
relative viability ([3]; first compound 2.53 µM): 0.818
relative viability ([3]; first compound 8 µM): 0.786

PC-14
relative viability ([1]; first compound 0.08 µM): 0.536
relative viability ([1]; first compound 0.8 µM): 0.712
relative viability ([1]; first compound 2.53 µM): 0.897
relative viability ([1]; first compound 8 µM): 0.7
relative viability ([2]; first compound 0.04 µM): 0.714
relative viability ([2]; first compound 0.1265 µM): 0.878
relative viability ([2]; first compound 0.4 µM): 0.851
relative viability ([2]; first compound 4 µM): 0.683
relative viability ([3]; first compound 0.08 µM): 0.987
relative viability ([3]; first compound 0.8 µM): 1.13
relative viability ([3]; first compound 2.53 µM): 1.06
relative viability ([3]; first compound 8 µM): 0.979

RERF-LC-KJ
relative viability ([1]; first compound 0.08 µM): 0.553
relative viability ([1]; first compound 0.8 µM): 0.727
relative viability ([1]; first compound 2.53 µM): 0.862
relative viability ([1]; first compound 8 µM): 0.712
relative viability ([2]; first compound 0.04 µM): 0.737
relative viability ([2]; first compound 0.1265 µM): 0.736
relative viability ([2]; first compound 0.4 µM): 0.838
relative viability ([2]; first compound 1.265 µM): 0.652
relative viability ([2]; first compound 4 µM): 0.74
relative viability ([3]; first compound 0.08 µM): 1.05
relative viability ([3]; first compound 0.8 µM): 1.01
relative viability ([3]; first compound 2.53 µM): 0.76
relative viability ([3]; first compound 8 µM): 0.94

SK-LU-1
relative viability ([1]; first compound 0.08 µM): 0.783
relative viability ([1]; first compound 0.8 µM): 0.766
relative viability ([1]; first compound 2.53 µM): 0.857
relative viability ([1]; first compound 8 µM): 0.729
relative viability ([2]; first compound 0.04 µM): 0.776
relative viability ([2]; first compound 0.1265 µM): 0.767
relative viability ([2]; first compound 0.4 µM): 0.696
relative viability ([2]; first compound 1.265 µM): 0.671
relative viability ([2]; first compound 4 µM): 0.522
relative viability ([3]; first compound 0.08 µM): 1.25
relative viability ([3]; first compound 0.8 µM): 0.913
relative viability ([3]; first compound 2.53 µM): 0.85
relative viability ([3]; first compound 8 µM): 0.88

SK-MES-1
relative viability ([1]; first compound 0.08 µM): 0.979
relative viability ([1]; first compound 0.8 µM): 0.978
relative viability ([1]; first compound 2.53 µM): 1.22
relative viability ([1]; first compound 8 µM): 1.07
relative viability ([2]; first compound 0.04 µM): 1.04
relative viability ([2]; first compound 0.1265 µM): 1.05
relative viability ([2]; first compound 0.4 µM): 1.11
relative viability ([2]; first compound 1.265 µM): 1.2
relative viability ([2]; first compound 4 µM): 1.17
relative viability ([3]; first compound 0.08 µM): 1.26
relative viability ([3]; first compound 0.8 µM): 1.36
relative viability ([3]; first compound 2.53 µM): 1.37
relative viability ([3]; first compound 8 µM): 1.2

SW 1573
relative viability ([1]; first compound 0.8 µM): 0.642
relative viability ([1]; first compound 2.53 µM): 1.01
relative viability ([1]; first compound 8 µM): 0.967
relative viability ([2]; first compound 0.04 µM): 0.652
relative viability ([2]; first compound 0.1265 µM): 0.669
relative viability ([2]; first compound 0.4 µM): 0.638
relative viability ([2]; first compound 1.265 µM): 0.428
relative viability ([2]; first compound 4 µM): 0.592
relative viability ([3]; first compound 0.08 µM): 0.778
relative viability ([3]; first compound 0.8 µM): 1.2
relative viability ([3]; first compound 2.53 µM): 1.19
relative viability ([3]; first compound 8 µM): 1.09

— the supplement of paper PMC10307832
